Experiment [1] concerns the target Luciferin 4-monooxygenase (Photinus pyralis, UniProt P08659). Nature of the experiment: inhibition of purified Photinus pyralis luciferase – biochemical, luminescence, dose response (AID 1891).
Experiment [2] can be described thus: Luminescence Cell-Based Dose Confirmation HTS to Identify Inhibitors of Platelet Dense Granule Release. [Related pubchem assays: 1663 (Primary HTS), 1678 (Summary of Project)]. It is filed as functional.
For experiment [3], the system named is Streptococcus sp. 'group A'. Nature of the experiment: Streptococcus pyogenes SK(-)GAS viability under kanamycin – luminescence, BacTiterGlo, confirmation, counter-screen for streptokinase expression inhibitor project, dose response (AID 1900). In kind it is functional, organism-based. Background: A counterscreen serves to expose hits that act by an unwanted route or on another target.

In a further experiment the target is T1, Streptokinase A (Streptococcus pyogenes serotype M1, UniProt P10520).
T1 sequence (P10520 whole entry): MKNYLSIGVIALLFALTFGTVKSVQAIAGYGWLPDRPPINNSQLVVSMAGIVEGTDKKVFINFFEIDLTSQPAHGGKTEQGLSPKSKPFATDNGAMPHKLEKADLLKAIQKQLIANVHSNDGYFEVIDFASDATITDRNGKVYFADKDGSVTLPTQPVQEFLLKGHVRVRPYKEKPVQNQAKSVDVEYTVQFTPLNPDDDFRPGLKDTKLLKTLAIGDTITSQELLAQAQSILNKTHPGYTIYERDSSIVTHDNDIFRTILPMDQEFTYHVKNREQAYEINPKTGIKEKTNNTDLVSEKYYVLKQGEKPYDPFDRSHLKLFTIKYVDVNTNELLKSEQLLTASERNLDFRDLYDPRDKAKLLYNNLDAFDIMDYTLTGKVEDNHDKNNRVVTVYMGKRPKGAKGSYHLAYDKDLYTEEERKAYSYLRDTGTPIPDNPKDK
The experiment is described as follows: viability-normalized secreted streptokinase activity reduction – plasminogen activation absorbance, OD405, dose response (AID 1914).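 Note: secreted streptokinase activity via plasminogen activation per viability signal from cell pellet.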 It is filed as functional, Streptococcus pyogenes M1 GAS.

The test system of a further experiment is Streptococcus. Nature of the experiment: GAS UMAA2166 growth inhibition – luminescence, BacTiterGlo, counter-screen for streptokinase expression inhibitor project, dose response (AID 1915).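 Note: potency for reduction of bacterial viability or growth.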 It is filed as functional, organism-based.
Another experiment concerns INS1. The experiment is described as follows: INS-1E survival protection against cytokine death – cell-based, luminescence, retest, dose response (AID 449756).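 Note: cell death triggered by IL-1 beta plus TNF-alpha plus IFN-gamma mixture; protective hits raise ATP signal compared with cytokine alone wells.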 In kind it is functional. The settings on record: Rattus norvegicus.
The target in experiment [4] is T2, RNA-binding protein pos-1 (Caenorhabditis elegans, UniProt G5EF15).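 Note: purified POS-1 fused to maltose binding protein made in E. coli; potency of compounds blocking POS-1 binding to fluorescent RNA.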
T2 sequence (G5EF15 whole entry): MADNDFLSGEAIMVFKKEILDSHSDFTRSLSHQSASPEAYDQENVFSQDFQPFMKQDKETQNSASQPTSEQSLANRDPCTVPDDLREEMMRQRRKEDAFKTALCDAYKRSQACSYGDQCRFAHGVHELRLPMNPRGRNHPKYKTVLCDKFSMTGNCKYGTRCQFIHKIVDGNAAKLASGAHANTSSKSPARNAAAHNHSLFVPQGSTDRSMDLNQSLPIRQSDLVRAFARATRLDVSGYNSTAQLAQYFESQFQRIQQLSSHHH
Nature of the experiment: disruptors of C. elegans POS-1 RNA interaction – biochemical, fluorescence polarization, dose response (AID 1964). (In fluorescence polarisation assays a small probe gives low polarisation when free and higher when bound to something large.)

Experiment [5] has as its target T3, Zinc finger protein mex-5 (Caenorhabditis elegans, UniProt Q9XUB2).
T3 sequence (Q9XUB2 whole entry): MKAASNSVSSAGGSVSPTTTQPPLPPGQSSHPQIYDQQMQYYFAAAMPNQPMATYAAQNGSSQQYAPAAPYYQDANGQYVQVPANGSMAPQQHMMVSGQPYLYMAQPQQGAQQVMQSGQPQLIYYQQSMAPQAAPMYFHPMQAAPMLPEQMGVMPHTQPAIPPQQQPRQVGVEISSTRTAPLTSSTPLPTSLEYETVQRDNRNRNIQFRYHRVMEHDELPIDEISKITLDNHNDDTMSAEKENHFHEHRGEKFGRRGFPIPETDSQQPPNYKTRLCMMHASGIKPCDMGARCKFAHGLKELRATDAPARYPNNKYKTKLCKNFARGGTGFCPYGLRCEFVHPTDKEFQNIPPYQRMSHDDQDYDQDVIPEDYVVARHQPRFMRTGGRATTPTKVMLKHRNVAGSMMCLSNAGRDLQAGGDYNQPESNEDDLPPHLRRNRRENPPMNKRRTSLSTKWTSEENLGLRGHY
The experiment is described as follows: potency of MEX-5 RNA-binding blockers – biochemical, C. elegans, fluorescence polarization, dose response (AID 1960).

Experiment [6] is described as follows: Luminescence Cell-Based Dose Retest to Confirm Inhibitors of Cancer Stem Cells. [Related pubchem assays (depositor defined):AID2717, AID2721]. It is filed as functional. Conditions: Homo sapiens.
Experiment [7] has as its target T4, Heat shock factor protein 1 (Mus musculus, UniProt P38532).
T4 sequence (P38532 whole entry): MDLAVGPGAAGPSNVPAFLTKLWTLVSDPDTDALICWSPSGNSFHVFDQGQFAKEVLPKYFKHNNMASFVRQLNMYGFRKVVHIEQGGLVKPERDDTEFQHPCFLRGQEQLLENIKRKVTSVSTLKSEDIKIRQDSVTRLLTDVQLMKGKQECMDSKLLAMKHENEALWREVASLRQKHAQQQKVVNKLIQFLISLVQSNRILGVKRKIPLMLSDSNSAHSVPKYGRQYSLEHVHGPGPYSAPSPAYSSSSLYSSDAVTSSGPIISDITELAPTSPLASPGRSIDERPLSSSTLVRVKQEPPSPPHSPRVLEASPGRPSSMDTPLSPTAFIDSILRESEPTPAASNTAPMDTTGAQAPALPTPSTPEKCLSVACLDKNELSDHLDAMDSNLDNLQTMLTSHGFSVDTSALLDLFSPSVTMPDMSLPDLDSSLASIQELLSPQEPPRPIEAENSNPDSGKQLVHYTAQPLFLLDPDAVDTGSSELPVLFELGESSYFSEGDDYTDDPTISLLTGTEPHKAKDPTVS
Nature of the experiment: decrease of HSF1-responsive luciferase luminescence – cell-based, NIH3T3, dose retest, confirmation (AID 2382).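 Note: NIH3T3 fibroblasts with HSF1-driven luciferase reporter stressed by proteasome inhibitor MG132; luminescence from HSF1-driven luciferase expression after 8 hours of MG132 stress.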 It is filed as functional.

The target of the next experiment is Cytochrome P450 2C9 (Homo sapiens, UniProt P11712).
Chain of Cytochrome P450 2C9 (P11712 whole entry): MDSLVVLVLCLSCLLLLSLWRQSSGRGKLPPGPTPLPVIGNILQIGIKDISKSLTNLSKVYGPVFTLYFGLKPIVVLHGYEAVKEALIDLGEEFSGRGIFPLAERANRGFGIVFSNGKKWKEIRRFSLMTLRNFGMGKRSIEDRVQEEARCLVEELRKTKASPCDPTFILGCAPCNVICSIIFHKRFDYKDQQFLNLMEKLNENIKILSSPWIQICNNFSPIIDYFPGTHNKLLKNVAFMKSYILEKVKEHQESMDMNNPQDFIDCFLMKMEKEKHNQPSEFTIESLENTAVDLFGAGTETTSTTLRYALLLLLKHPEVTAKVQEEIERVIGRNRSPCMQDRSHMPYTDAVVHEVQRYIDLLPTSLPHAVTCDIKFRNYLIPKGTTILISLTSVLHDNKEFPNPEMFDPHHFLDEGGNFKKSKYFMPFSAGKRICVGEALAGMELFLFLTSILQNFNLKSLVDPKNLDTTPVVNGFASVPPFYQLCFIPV
In experiment [8] the target is T5, Rac GTPase-activating protein 1 (Homo sapiens, UniProt Q9H0H5).
T5 sequence (Q9H0H5 whole entry): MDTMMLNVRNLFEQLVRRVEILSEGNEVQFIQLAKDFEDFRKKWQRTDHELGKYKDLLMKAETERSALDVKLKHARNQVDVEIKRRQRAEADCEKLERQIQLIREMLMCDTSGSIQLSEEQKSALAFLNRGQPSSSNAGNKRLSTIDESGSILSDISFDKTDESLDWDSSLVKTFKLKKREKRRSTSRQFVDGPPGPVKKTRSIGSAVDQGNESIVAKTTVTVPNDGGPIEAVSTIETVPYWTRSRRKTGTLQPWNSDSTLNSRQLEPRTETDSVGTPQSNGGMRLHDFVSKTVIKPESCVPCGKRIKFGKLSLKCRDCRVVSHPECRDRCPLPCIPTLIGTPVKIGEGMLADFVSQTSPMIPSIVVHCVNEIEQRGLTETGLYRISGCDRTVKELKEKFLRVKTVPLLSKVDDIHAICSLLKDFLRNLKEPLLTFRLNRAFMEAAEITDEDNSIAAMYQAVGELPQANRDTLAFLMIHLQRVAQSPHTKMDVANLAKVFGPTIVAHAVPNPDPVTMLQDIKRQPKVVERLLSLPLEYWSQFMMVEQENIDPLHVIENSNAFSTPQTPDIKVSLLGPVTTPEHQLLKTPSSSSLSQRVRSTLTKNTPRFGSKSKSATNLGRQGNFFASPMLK
The experiment is described as follows: blockers of MgcRacGAP-driven Rac1 GTP hydrolysis – biochemical, ADP Hunter fluorescence, primary and confirmatory, confirmation (AID 624330). It is filed as functional.

The EC50 is the concentration giving half of the maximal effect. For orientation: AC50 means the midpoint of the concentration-response curve, whichever way the signal moves. Broadly, the IC50 is the concentration that inhibits the measured activity by half.

The structures appear in SMILES notation. Calls of active or inactive are those of the source. Cut-off read from the data, not from the text of the source, for most assays here: actives have a measured EC50 and inactives only a lower limit.

Chain of Luciferin 4-monooxygenase (P08659 whole entry): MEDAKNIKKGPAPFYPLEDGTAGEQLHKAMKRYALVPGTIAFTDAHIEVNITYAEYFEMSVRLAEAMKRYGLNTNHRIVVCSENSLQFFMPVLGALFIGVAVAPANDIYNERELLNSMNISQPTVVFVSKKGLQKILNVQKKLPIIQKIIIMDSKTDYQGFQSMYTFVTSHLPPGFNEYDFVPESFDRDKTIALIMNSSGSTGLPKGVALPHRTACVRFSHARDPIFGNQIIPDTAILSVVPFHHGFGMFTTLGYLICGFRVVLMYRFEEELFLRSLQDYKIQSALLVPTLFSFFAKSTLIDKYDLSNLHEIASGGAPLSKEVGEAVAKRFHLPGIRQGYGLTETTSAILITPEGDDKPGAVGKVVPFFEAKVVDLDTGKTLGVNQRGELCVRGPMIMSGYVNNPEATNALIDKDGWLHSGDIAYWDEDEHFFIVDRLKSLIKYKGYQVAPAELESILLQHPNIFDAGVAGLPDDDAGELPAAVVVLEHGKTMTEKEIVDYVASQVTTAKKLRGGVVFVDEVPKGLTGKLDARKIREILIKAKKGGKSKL

Regarding `Nc1cc(-c2ccccc2)nn1Cc1ccc(Cl)cc1`, the EC50 in experiment [1] and in [2] was > 112 µM (not active) each time.

For `CCc1sc(N(C(=O)Cc2ccccc2)c2ccc(F)cc2)nc1-c1ccccc1`, the EC50 in experiment [3] was > 150 µM (not active); on Streptokinase A, 11.8 µM (active); with Streptococcus, > 150 µM (not active).

As to `Cc1cccc(NC(S)=Nc2ccc3c[nH]nc3c2)c1`, the EC50 in experiment [1] and in [2] was > 112 µM (not active) each time. In the experiment with INS1, the AC50 is > 260 µM (inactive).

Take `CC(C)C[C@H](NC(=O)N1CC(=O)Nc2ccccc21)C(=O)N[C@H](C(=O)O)c1ccccc1`: the EC50 (in experiment [3]; at Streptokinase A; with Streptococcus) was > 150 µM (not active) in each case.

Consider `COCCSc1ccccc1C(=O)Nc1ccc2c(c1)OCO2`, for which the EC50 in experiment [1] and in experiment [2] was > 112 µM (not active) each time.

Take `COCCN(C(=O)COC(=O)CCc1nc2ccccc2s1)c1c(N)n(Cc2ccccc2)c(=O)[nH]c1=O`: the EC50 in experiment [1] and in [2] was > 112 µM (not active) each time.

Take `CC(C)C(=O)Nc1ccc(NC(=S)NC(=O)c2ccccc2F)cc1`: the EC50 in experiment [1] and in experiment [2] was > 112 µM (not active) throughout.

For the molecule `COC(=O)c1ccccc1Oc1cc(C(F)(F)F)nc(-c2ccccn2)n1`, the EC50 in experiment [1] and in experiment [2] was > 112 µM (not active) in each case.

Take `O=C(c1ccc(F)cc1)N1CCN(C2CCC(c3ccccc3)CC2)CC1` (stereo unspecified): the EC50 in [4] and in experiment [5] was > 300 µM (not active) in each case.

Take `CCCCn1c(CCCNC(=O)c2ccco2)nc2ccccc21`: the concentration for a half-maximal effect (EC50) (in [3]; at Streptokinase A; in the experiment on Streptococcus) was > 150 µM (not active) throughout.

Take `CCOC(=O)CN1C(=O)C(O)=C(C(C)=O)C1c1ccc(F)cc1` (stereo unspecified): the EC50 in experiment [1] and in experiment [2] was > 112 µM (not active) in each case.

With `COC(=O)/C(C#N)=C/c1c(Oc2cc(C)cc(C)c2)nc2c(C)cccn2c1=O`, the EC50 in [4] was 104 µM (active); in experiment [5], > 300 µM (not active).

Regarding `Cc1ccc2cc(CN(Cc3cccs3)C(=O)c3ccco3)c3nnnn3c2c1C`, the EC50 in experiment [3] was 2.28 µM (active); at Streptokinase A, > 150 µM (not active); with Streptococcus, 31.7 µM (active).

In the case of `Cc1ccc(C2CCN(C(=O)Nc3ccccc3)C2)cc1` (stereo unspecified), the EC50 in experiment [1] and in experiment [2] was > 112 µM (not active) each time.

For `CC(C)(C)c1cc(C(=O)NNc2cc(C(F)(F)F)ccc2Cl)n(Cc2ccccc2)n1`, the results for the EC50 (in experiment [3]; at Streptokinase A; in the experiment on Streptococcus) were 3.24 µM (active), > 150 µM (not active) and 8.74 µM (active), respectively. Moreover, in experiment [6], the AC50 was 3.81 µM (active).

With `COc1ccc(NC(=O)CCl)cn1`, the EC50 in [4] was 9.67 µM (active); in experiment [5] it was 8.06 µM (active).

As to `Clc1ccc(N2COC3c4cccc5cccc(c45)C32)cc1` (stereo unspecified), the EC50 in experiment [3] was 17.4 µM (active); on Streptokinase A it was 14.2 µM (active); with Streptococcus, > 150 µM (not active).

For the molecule `Fc1ccc(C2=CC(c3ccco3)n3ncnc3N2)cc1` (stereo unspecified), the EC50 was 14.7 µM (active) in [4] and 12.8 µM (active) in [5].

For the molecule `S=C(Nc1ccccc1Cl)N(CCCN1CCOCC1)Cc1ccco1`, the EC50 in experiment [1] and in [2] was > 112 µM (not active) each time.

As for `COCCNC(=O)C1Nc2ccc(OC(F)(F)F)cc2C2C=CCC12` (stereo unspecified), the EC50 in experiment [4] and in experiment [5] was > 300 µM (not active) throughout.

Consider `CCc1ccc2[nH]c(O)c(N=Nc3nc(-c4ccccc4)cs3)c2c1`, for which the EC50 was 9.51 µM (active) in experiment [3], > 195 µM (not active) in experiment [7], > 150 µM (not active) at Streptokinase A and 27.3 µM (active) with Streptococcus. Moreover, on Cytochrome P450 2C9, the AC50 is 39.8 µM (inconclusive).

As for `CCOc1ccc(/C=N/NC(=O)c2ccoc2C)cc1OC`, the results for the EC50 in [1] and in experiment [2] were 28.3 µM (active) and 6.04 µM (active), respectively.

Consider `Cc1ccc(O)c(/C=N/NC(=O)Cc2ccc(Cl)cc2)c1`, for which the EC50 was 3.25 µM (active) in [3], > 150 µM (not active) on Streptokinase A and 13.6 µM (active) in the experiment with Streptococcus.

For the molecule `COc1cc(/C=N/c2oc(-c3ccccc3)cc2C#N)ccc1O`, the EC50 in [4] and in [5] was > 300 µM (not active) in each case.

`Nc1c(Cl)ncnc1N/N=C/c1ccc(O)cc1`: the EC50 in experiment [1] is 7.55 µM (active); in experiment [2] it was 0.779 µM (active). The IC50 in experiment [8] is 16.5 µM (active).

Regarding `CC(C)C(C(=O)Nc1nccs1)c1ccc(Cl)cc1` (stereo unspecified), the EC50 in [3] is 12.7 µM (active); on Streptokinase A, > 150 µM (not active); with Streptococcus, > 150 µM (not active).

Source of the values: ChEMBL document CHEMBL1201862, “PubChem BioAssay data set” (2004).
